Entries after “also recorded” stand apart in the source; their conditions may differ.
Columns and labels:
Format in all cases: cell-based
MC3T3-E1 cells = assay: DNA quantification (cell number) of cells on peptide-coated Ti; details: 48 h culture on Ti coated with 50 μg/ml peptide, FIG. 9
Protocol: (§1) Under aseptic conditions, implants were immersed in a 3:7 (v/v) HNO3-DI water solution for 30 min at room temperature. Then, they were rinsed with milliQ water and placed in a covered milliQ water bath for 24 h. Implants were dried with N2 and were placed in a 96-well plates. Then, 200 μl of 50 μg/ml peptide solutions in PBS were added to each implant. Absorption took place for 24 h at 37° C. in a humidified atmosphere. After 24 h peptide solutions were collected and surfaces were washed with 200 μl of PBS and air-dried in order to perform cell experiments. The surfaces were denoted Ti (uncoated Ti), P1 (Ti coated with IP10-RGD), P2 (Ti coated with IP10mut-RGD), P3 (Ti coated with IP10-RGDmut) and P4 (Ti coated with IP10mut-RGDmu).
(§2) MC3T3-E1 cells were routinely cultured at 37° C. in a humidified atmosphere of 5% CO2, and maintained in α-minimum essential medium (α-MEM) supplemented with 10% fetal bovine serum (FBS) and antibiotics (50 IU penicillin/ml and 50 μg streptomycin/ml). 7.0×10^3 cells were seeded on the peptide-coated implants. Trypan blue stain was used to determine total and viable cell number. The same number of cells was cultured in parallel in plastic culture plates in the experiment. All experiments were performed after 15 passages of the MC3T3-E1 cells.
Culture media was removed from wells and plates were frozen at −80° C. until the experiment was carried out. At the day of analysis, 100 μl of distilled water were added to each well. Plates were incubated for 1 hour at room temperature. Again, plates were frozen at −80° C. to lysate cells. Plates were thawed until reaching room temperature and 100 μl of Hoechst 33258 at 20 μg/ml in THE buffer were added. Then, 200 μl aliquots were transferred to 96-well fluorescence plates and a spectrophotometer was set to record fluorescence. Relative fluorescence units were correlated with the cell number using a linear standard curve.

Integrin α8 (Itga8) = assay: Real-time RT-PCR gene expression in MC3T3-E1 cells on peptide-coated Ti; details: after 72 h of cell culture, FIG. 11
Protocol: as §1, with “Adsorption” for “Absorption”, “in vitro” for “cell”, “The surfaces were denoted Ti (uncoated Ti), P1 (Ti coated with IP10-RGD), P2 (Ti coated with IP10mut-RGD), P3 (Ti coated with IP10-RGDmut) and P4 (Ti coated with IP10mut-RGDmu).” left out
(§3) Total RNA was isolated using Tripure, according to the manufacturer's protocol. Total RNA was quantified at 260 nm using a Nanodrop spectrophotometer. […]
(§4) Each reaction contained 7 μl Lightcycler-FastStart DNA MasterPLUS SYBR Green I (containing Fast Start Taq polymerase, reaction buffer, dNTPs mix, SYBRGreen I dye and MgCl2), 0.5 μM of each, the sense and the antisense specific primers and 3 μl of the cDNA dilution in a final volume of 10 μl. […] After each cycle, fluorescence was measured at 72° C. […]
(§5) All samples were normalized by the geometric mean of the expression levels of 18S rRNA and Gapdh and fold changes were related to day 1 of culture using the mathematical model described by Pfaffl, A new mathematical model for relative quantification in real-time RT-PCR, Nucleic Acids Research 2001, 29: e45: […]

integrin β3 (Itgb3) = assay: as above; details: after 72 h of cell culture, FIG. 11
Protocol: as §1, with “Adsorption” for “Absorption”, “in vitro” for “cell”, “The surfaces were denoted Ti (uncoated Ti), P1 (Ti coated with IP10-RGD), P2 (Ti coated with IP10mut-RGD), P3 (Ti coated with IP10-RGDmut) and P4 (Ti coated with IP10mut-RGDmu).” left out
as §3, §4, §5

integrin β3 = assay: Immunocytochemistry of integrin β3 in MC3T3-E1 cells on peptide-coated Ti; details: after 72 h of culture, FIG. 12
Protocol: as §1, with “Adsorption” for “Absorption”, “in vitro” for “cell”, “experiments.” for “experiments. The surfaces were denoted Ti (uncoated Ti), P1 (Ti coated with IP10-RGD), P2 (Ti coated with IP10mut-RGD), P3 (Ti coated with IP10-RGDmut) and P4 (Ti coated with IP10mut-RGDmu).”
as §2, with “α-MEM” for “α-minimum essential medium (α-MEM)”, “FBS” for “fetal bovine serum (FBS)”, “4” for “15”
Cells grown for 24 and 72 h on the surfaces were fixed for 15 min with 4% formaldehyde in PBS at room temperature. Cells were incubated with 0.1% Triton X-100 for 5 min, 1% bovine serum albumin for 30 min and then with anti-integrin beta-3 antibody for 1 h at 1:50 dilution in PBS. Then, a Cy3-conjugated goat anti-rabbit IgG was used as secondary antibody for 1.5 h at 1:200 dilution in PBS. For actin cytoskeleton visualization, cells were stained with phalloidin-FITC 5 μg/mL in PBS for 30 min. Cells were washed with PBS and coin-shaped samples were placed on slides. Finally, a drop of Fluoroshield with DAPI was added and cover glasses were mounted on the samples. Two samples of each group were used to perform the experiment and two images of each sample were taken with the confocal microscope (Leica DMI 4000B equipped with Leica TCS SPE laser system).

MKKKGEGGGGGGGGRGDS (IP-10 derived peptide connected to RGD motif via poly-G-linker) [Peptide P1, surface P1 = Ti coated with it]
number of cells (DNA quantification) (MC3T3-E1 cells): highest number of cells
expression of Itga8 compared with uncoated surfaces (Integrin α8 (Itga8)): increased gene expression
expression of Itgb3 compared with uncoated surfaces (integrin β3 (Itgb3)): increased gene expression
integrin β3 staining (integrin β3): allowed integrin β3 visualization; also recorded: highest integrin β3 staining; also recorded: allowed specific anti-integrin β3 staining

Reference: patent US9957311B2, “Surface-binding peptide” (TIKOMED AB, priority 2013, dated 2018)
